Measured values: patent US11396517B1, “Exo-aza spiro inhibitors of menin-MLL interaction” (Janssen Pharmaceutica NV, priority 2017, dated 2022)
Like-named read-outs stand apart in the source and are kept apart here.

Target: T1, menin (Homo sapiens, UniProt O00255, T541A)
T1 construct: Menin (a.a. 1-610-6×his tag)
T1 sequence (O00255 with tags, fused parts or gaps T541A): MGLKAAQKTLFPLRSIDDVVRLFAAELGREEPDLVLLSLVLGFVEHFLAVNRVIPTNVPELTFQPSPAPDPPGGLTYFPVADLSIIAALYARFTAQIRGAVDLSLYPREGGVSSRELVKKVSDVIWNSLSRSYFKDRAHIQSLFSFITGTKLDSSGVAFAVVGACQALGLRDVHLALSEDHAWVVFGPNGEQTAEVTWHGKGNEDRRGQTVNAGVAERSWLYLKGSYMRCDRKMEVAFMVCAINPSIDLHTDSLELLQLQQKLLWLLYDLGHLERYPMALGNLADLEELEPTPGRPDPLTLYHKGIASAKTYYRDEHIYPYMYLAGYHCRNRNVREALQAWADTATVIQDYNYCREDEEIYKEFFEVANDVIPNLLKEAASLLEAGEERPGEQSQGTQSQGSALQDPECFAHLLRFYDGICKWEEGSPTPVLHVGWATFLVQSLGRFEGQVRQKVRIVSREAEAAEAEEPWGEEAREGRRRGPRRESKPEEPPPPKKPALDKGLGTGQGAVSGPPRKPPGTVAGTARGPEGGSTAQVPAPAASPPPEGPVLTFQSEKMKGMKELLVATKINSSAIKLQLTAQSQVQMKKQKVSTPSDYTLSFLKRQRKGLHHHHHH
Test: Menin/MLL homogenous time-resolved fluorescence (HTRF) assay
Type: binding
Description: 2) Menin/MLL Homogenous Time-Resolved Fluorescence (HTRF) Assay
To an untreated, white 384-well microtiter plate was added 40 nL 200× test compound in DMSO and 4 μL 2× terbium chelate-labeled menin (vide infra for preparation) in assay buffer (40 mM Tris HCl, pH 7.5, 50 mM NaCl, 1 mM DTT and 0.05% Pluronic F-127). After incubation of test compound and terbium chelate-labeled menin for 5 min at ambient temperature, 4 μL 2× FITC-MBM1 peptide (FITC-β-alanine-[…]-NH2 (SEQ ID NO: 23)) in assay buffer was added, the microtiter plate centrifuged at 1000 rpm for 1 min and the assay mixtures incubated for 15 min at ambient temperature. The relative amount of menin.FITC-MBM1 complex present in an assay mixture is determined by measuring the homogenous time-resolved fluorescence (HTRF) of the terbium/FITC donor/acceptor fluorphore pair using a BMG Pherastar plate reader (ex. 337 nm/terbium em. 490 nm/FITC em. 520 nm) at ambient temperature. The degree of fluorescence resonance energy transfer (the HTRF value) is expressed as the ratio of the fluorescence emission intensities of the FITC and terbium fluorophores (Fern 520 nm/Fem 490 nm). The final concentrations of reagents in the binding assay are […] terbium chelate-labeled menin (location 2), 75 nM FITC-MBM1 peptide and 0.5% DMSO in assay buffer. Dose-response titrations of test compounds are conducted using an 11 point, three-fold serial dilution scheme, starting typically at 25 μM (location 1) or starting typically at 10 μM (location 2).
Compound potencies were determined by first calculating % inhibition at each compound concentration according to equation 1: % inhibition=((HC−LC)−(HTRF^compound−LC))/(HC−LC))*100 (Eqn 1)
Where LC and HC are the HTRF values of the assay in the presence or absence of a saturating concentration of a compound that competes with FITC-MBM1 for binding to menin, and HTRF^compound is the measured HTRF value in the presence of the test compound. FTC and LC HTRF values represent an average of at least 16 replicates per plate.
Where Bottom and Top are the lower and upper asymptotes of the dose-response curve, respectively, IC50 is the concentration of compound that yields 50% inhibition of signal and h is the Hill coefficient.
Preparation of Terbium cryptate labeling of Menin: Menin (a.a. 1-610-6×his tag (“6×his” disclosed as SEQ ID NO: 3)) was labeled with terbium cryptate as follows. 2 mg of Menin was buffer exchanged into 1× phosphate buffered saline. 16 uM Menin was incubated with 4-fold molar excess NHS-terbium cryptate (Cisbio Bioassays, Bedford, Mass.) for 2 hours at room temperature. The labeled protein was purified away from free label by running the reaction over a Superdex 200 Increase 10/300 GL column at 0.75 ml/min. Peak fractions were collected, aliquoted and frozen at −80° C.

[1] = location 2, read-out: (2) location 2 Menin HTRF assay (IC50 (nM))
[2] = location 1, read-out: (2) location 1 Menin HTRF assay (IC50 (nM))

| IC50 [1] [nM] | IC50 [2] [nM] | Structure (SMILES) |
| --- | --- | --- |
| 213 |  | CNC(=O)c1ccc(NC2CCC3(C2)CN(c2ncnc4sc(CC(F)(F)F)cc24)C3)cc1 (single isomer, unassigned) [Compound 97] |
| 7520 |  | O=C(NC1CC2(CCN(c3ncnc4sc(CC(F)(F)F)cc34)C2)C1)c1ccccc1 (stereo not shown) [Compound 36] |
| 656 |  | Cc1ccccc1NC1CC2(CCN(c3ncnc4sc(CC(F)(F)F)cc34)C2)C1 (mixture of isomers) [Compound 165] |
| 339 |  | FC(F)(F)Cc1cc2c(N3CCC4(CC(Nc5cn[nH]c5)C4)C3)ncnc2s1 (mixture of isomers) [Compound 309] |
| 234 |  | CN(C1CC2(CCN(c3ncnc4sc(CC(F)(F)F)cc34)C2)C1)S(=O)(=O)c1cccc(C#N)c1 (mixture of isomers) [Compound 425] |
| 224 |  | Cn1ncc2ccc(NC3CC4(CCN(c5ncnc6sc(CC(F)(F)F)cc56)C4)C3)cc21 (mixture of isomers) [Compound 206] |
| 231 |  | CNS(=O)(=O)c1ccc(N[C@@H]2CCC3(C2)CN(c2ncnc4sc(CC(F)(F)F)cc24)C3)cc1 (single isomer, unassigned) [Compound 290] |
| 949 |  | FC(F)(F)Cc1cc2c(N3CC4(CCC(Nc5cn[nH]c5)C4)C3)ncnc2s1 (racemic) [Compound 277] |
| 136 |  | FC(F)(F)Cc1cc2c(N3CCC4(CC(Nc5ccc6cc[nH]c6c5)C4)C3)ncnc2s1 (single isomer, unassigned) [Compound 312] |
| 143 | 472 | FC(F)(F)Cc1cc2c(N3CCC4(CCC(NCc5ccccc5)C4)C3)ncnc2s1 (single isomer, unassigned) [Compound 6] |
| 155 |  | Fc1ccccc1NC1CC2(CCN(c3ncnc4sc(CC(F)(F)F)cc34)C2)C1 (mixture of isomers) [Compound 156] |
| 70.8 |  | Nc1nc(N2CCC3(CC(Nc4ccc5[nH]c(=O)[nH]c5c4)C3)C2)c2cc(CC(F)(F)F)sc2n1 (single isomer, unassigned) [Compound 383] |
| 70.4 |  | N#CCc1ccc(NC2CC3(CCN(c4ncnc5sc(CC(F)(F)F)cc45)C3)C2)cc1Cl (single isomer, unassigned) [Compound 210] |
| 217 |  | N#CCc1ccc(NC2CCC3(C2)CN(c2nc(N)nc4sc(CC(F)(F)F)cc24)C3)cc1 (single isomer, unassigned) [Compound 388] |
| 433 |  | O=S(=O)(NC1CC2(CCN(c3ncnc4sc(CC(F)(F)F)cc34)C2)C1)c1cccc(C(F)(F)F)c1 (mixture of isomers) [Compound 416] |
| 948 | 843 | N#CCc1ccc(C(=O)NC2CC3(CCN(c4ncnc5sc(CC(F)(F)F)cc45)C3)C2)cc1 (mixture of isomers) [Compound 10] |
| 163 |  | CNc1nc(N2CCC3(CC(Nc4ccc(CC#N)cc4)C3)C2)c2cc(CC(F)(F)F)sc2n1 (single isomer, unassigned) [Compound 391] |
| 5940 |  | N#CCc1ccc(S(=O)(=O)NC2CCC3(CCN(c4ncnc5sc(CC(F)(F)F)cc45)C3)C2)cc1 (stereo not shown) [Compound 125] |
| 100 |  | O=C(c1ccc(NC2CC3(CCN(c4ncnc5sc(CC(F)(F)F)cc45)C3)C2)cc1)N1CC2(COC2)C1 (single isomer, unassigned) [Compound 414] |
| 206 |  | FC(F)(F)Cc1cc2c(N3CCC4(CC(Nc5ccc(-c6cn[nH]c6)cc5)C4)C3)ncnc2s1 (single isomer, unassigned) [Compound 328] |
| 127 |  | N#CCc1cccc(NC2CC3(CCN(c4ncnc5sc(CC(F)(F)F)cc45)C3)C2)c1 (mixture of isomers) [Compound 173] |

| IC50 [1] [nM] | IC50 [2] [nM] | Structure (SMILES) |
| --- | --- | --- |
| 272 |  | CS(=O)(=O)N1CCN(CCn2c(=O)oc3cc(NC4CC5(CCN(c6ncnc7sc(CC(F)(F)F)cc67)C5)C4)ccc32)CC1 (mixture of isomers) [Compound 249] |
| 473 |  | N#Cc1cccc(S(=O)(=O)NC2CC3(CCN(c4ncnc5sc(CC(F)(F)F)cc45)C3)C2)c1 (mixture of isomers) [Compound 415] |
| 85.9 |  | O=c1[nH]c2ccc(NC3CC4(CCN(c5ncnc6sc(CC(F)(F)F)cc56)C4)C3)cc2o1 (single isomer, unassigned) [Compound 324] |
| 148 |  | O=c1ccc(NC2CC3(CCN(c4ncnc5sc(CC(F)(F)F)cc45)C3)C2)c[nH]1 (mixture of isomers) [Compound 305] |
| 199 |  | FC(F)(F)Cc1cc2c(N3CCC4(CC(Nc5ccccc5Cl)C4)C3)ncnc2s1 (mixture of isomers) [Compound 159] |
| 288 |  | FC(F)(F)Cc1cc2c(N3CCC4(CC(Nc5cccnc5)C4)C3)ncnc2s1 (single isomer, unassigned) [Compound 152] |
| > 10000 |  | CS(=O)(=O)Nc1ccc(C(=O)NC2CC3(CCN(c4ncnc5sc(CC(F)(F)F)cc45)C3)C2)cc1 (single isomer, unassigned) [Compound 28] |
| 65.3 |  | N#CCc1ccc(NC2CC3(CCN(c4ncnc5sc(CC(F)(F)F)cc45)C3)C2)c(Cl)c1 (single isomer, unassigned) [Compound 209] |
| 3040 |  | O=C1CN(C(=O)c2ccc(NC3CC4(CCN(c5ncnc6sc(CC(F)(F)F)cc56)C4)C3)cc2)CCN1 (single isomer, unassigned) [Compound 105] |
| 1100 |  | COC[C@@H]1CN(C(=O)c2ccc(NC3CC4(CCN(c5ncnc6sc(CC(F)(F)F)cc56)C4)C3)cc2)CCO1 (single isomer, unassigned) [Compound 409] |
| 913 |  | Cc1nc(N2CCC3(CC(Nc4ccccc4)C3)C2)c2cc(CC(F)(F)F)sc2n1 (stereo not shown) [Compound 264] |
| 419 |  | O=S(=O)(NC1CC2(CCN(c3ncnc4sc(CC(F)(F)F)cc34)C2)C1)c1ccccc1 (stereo not shown) [Compound 24] |
| 39.9 | 188 | FC(F)(F)Cc1cc2c(N3CCC4(CCC(NCc5ccccc5)C4)C3)ncnc2s1 (single isomer, unassigned) [Compound 4] |
| 39.6 |  | CNC(=O)c1ccc(NC2CC3(CCN(c4ncnc5sc(CC(F)(F)F)cc45)C3)C2)c(Cl)c1 (single isomer, unassigned) [Compound 68] |
| 313 |  | FC(F)(F)Cc1cc2c(N3CC4(CC[C@@H](NC5(c6ccccc6)CC5)C4)C3)ncnc2s1 (stereo in doubt) [Compound 112] |
| 1220 | 3810 | CC(C)(C#N)c1cccc(C(=O)NC2CC3(CCN(c4ncnc5sc(CC(F)(F)F)cc45)C3)C2)c1 (stereo not shown) [Compound 9] |
| 89.5 |  | CN1CCN(C(=O)c2ccc(NC3CC4(CCN(c5ncnc6sc(CC(F)(F)F)cc56)C4)C3)cc2)CC1 (single isomer, unassigned) [Compound 338] |
| 400 |  | Cc1cccc(NC2CC3(CCN(c4ncnc5sc(CC(F)(F)F)cc45)C3)C2)c1 (mixture of isomers) [Compound 166] |
| 256 |  | Cc1nc(N2CC3(CC[C@H](NCc4cccc(-c5cc[nH]n5)c4)C3)C2)c2cc(CC(F)(F)F)sc2n1 (single isomer, unassigned) [Compound 118] |
| 2160 |  | O=c1ccc(NC2CCC3(C2)CN(c2ncnc4sc(CC(F)(F)F)cc24)C3)c[nH]1 (stereo not shown) [Compound 283] |

| Structure (SMILES) | IC50 [1] [nM] | IC50 [2] [nM] |
| --- | --- | --- |
| CN(C1CC2(CCN(c3ncnc4sc(CC(F)(F)F)cc34)C2)C1)S(=O)(=O)c1ccccc1 (single isomer, unassigned) [Compound 26] | 311 |  |
